Test: refractive index (Na D-line) (dimensionless); xn = mol fraction of the nth substance listed
Conditions: 100 kPa, Liquid, Standard Abbe refractometry

CCOS(=O)(=O)[O-].CCn1cc[n+](C)c1 [1-ethyl-3-methylimidazolium ethyl sulfate] + CCCCCCO
refractive index
Conditions | x1 = 0.1016 | x1 = 0.2016 | x1 = 0.3005 | x1 = 0.3989 | x1 = 0.4975 | x1 = 0.5956 | x1 = 0.6647 | x1 = 0.7947 | x1 = 0.897 | x1 = 1
288.15 K | 1.42855 | 1.43639 | 1.44364 | 1.45017 | 1.45653 | 1.46223 | 1.46592 | 1.47274 | 1.47731 | 1.48155
293.15 K | 1.42666 | 1.4346 | 1.44194 | 1.44856 | 1.45499 | 1.46075 | 1.46447 | 1.47132 | 1.47593 | 1.48018
298.15 K | 1.42478 | 1.43283 | 1.44025 | 1.44701 | 1.45346 | 1.45927 | 1.46303 | 1.4699 | 1.47456 | 1.47882
303.15 K | 1.4229 | 1.43107 | 1.43858 | 1.44545 | 1.45193 | 1.4578 | 1.4616 | 1.46848 | 1.4732 | 1.47746
308.15 K | 1.42103 | 1.42932 | 1.43692 | 1.44387 | 1.4504 | 1.45631 | 1.46017 | 1.46706 | 1.47182 | 1.47611
313.15 K | 1.41917 | 1.42758 | 1.43525 | 1.44225 | 1.44886 | 1.45481 | 1.45872 | 1.46564 | 1.47044 | 1.47474
318.15 K | 1.41729 | 1.42582 | 1.43358 | 1.44065 | 1.44735 | 1.45333 | 1.45726 | 1.46423 | 1.46907 | 1.47341
323.15 K | 1.41543 | 1.42407 | 1.43195 | 1.4391 | 1.44582 | 1.45184 | 1.45582 | 1.46285 | 1.46769 | 1.47206

— the NIST ThermoML archive (doi:10.1016/j.jct.2017.12.023)
